Patent publication US11053204B2, “Pyrimidinyloxy benzene derivatives as herbicides” (FMC Corporation, priority 2015, dated 2021)

Legend:
Assay type in all cases: in vivo
[1] = test system: barnyardgrass (Echinochloa crus-galli); assay: Test A preemergence, visual injury rating
How it was run: (§1)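 Compounds in non-phytotoxic solvent with surfactant applied as soil spray preemergence, or postemergence to plants 2-10 cm at one- to two-leaf stage, in loam/sand. After approximately 10 days in greenhouse, injury rated visually versus untreated controls, 0 (no effect) to 100 (complete control).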

[2] = test system: Italian ryegrass (Lolium multiflorum); assay: Test A preemergence, visual injury rating
How it was run: as §1

[3] = test system: ragweed (common ragweed, Ambrosia elatior); assay: Test A preemergence, visual injury rating
How it was run: as §1

[4] = test system: giant foxtail (Setaria faberii); assay: Test A preemergence, visual injury rating
How it was run: as §1

kochia (Kochia scoparia) [5] = assay: Test A preemergence, visual injury rating
How it was run: as §1

[6] = test system: pigweed (Amaranthus retroflexus); assay: Test A preemergence, visual injury rating
How it was run: as §1

[7] = test system: sedge, umbrella (small-flower umbrella sedge, Cyperus difformis); assay: Test B flooded paddy test, plant response rating; conditions: 250 g ai/ha; Flood; scale of 0 to 100 where 0 is no effect and 100 is complete control; 13 to 15 days
How it was run: (§2)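 Pots were flooded to 3 cm above the soil surface at treatment, compound applied directly to the paddy water, and that depth held throughout. Plants were kept in a greenhouse for 13 to 15 days, then visually rated against untreated controls.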

[8] = test system: barnyardgrass (Echinochloa crus-galli); assay: Test B flooded paddy test, plant response rating; conditions: 250 g ai/ha; Flood; scale of 0 to 100 where 0 is no effect and 100 is complete control; 13 to 15 days
How it was run: as §2

rice (Oryza sativa) = assay: Test B flooded paddy test, plant response rating; conditions: 250 g ai/ha; Flood; scale of 0 to 100 where 0 is no effect and 100 is complete control; 13 to 15 days
How it was run: as §2

[9] = test system: ducksalad (Heteranthera limosa); assay: Test B flooded paddy test, plant response rating; conditions: 250 g ai/ha; Flood; scale of 0 to 100 where 0 is no effect and 100 is complete control; 13 to 15 days
How it was run: as §2

[10] = test system: blackgrass (Alopecurus myosuroides); assay: Test A postemergence, visual injury rating
How it was run: as §1

[11] = test system: barnyardgrass (Echinochloa crus-galli); assay: Test A postemergence, visual injury rating; conditions: 0 to 100 scale, 0 is no effect, 100 is complete control, approximately 10 days
How it was run: as §1

[12] = test system: Italian ryegrass (Lolium multiflorum); assay: Test A postemergence, visual injury rating
How it was run: as §1

[13] = test system: ragweed (common ragweed, Ambrosia elatior); assay: Test A postemergence, visual injury rating
How it was run: as §1

[14] = test system: wheat (Triticum aestivum); assay: Test A postemergence, visual injury rating
How it was run: as §1

[15] = test system: galium (catchweed bedstraw, Galium aparine); assay: Test A postemergence, visual injury rating
How it was run: as §1

[16] = test system: giant foxtail (Setaria faberii); assay: Test A postemergence, visual injury rating
How it was run: as §1

corn (Zea mays) = assay: Test A postemergence, visual injury rating
How it was run: as §1

kochia (Kochia scoparia) [17] = assay: Test A postemergence, visual injury rating
How it was run: as §1

[18] = test system: pigweed (Amaranthus retroflexus); assay: Test A postemergence, visual injury rating
How it was run: as §1

[19] = 31 g ai/ha, 0 to 100 scale, 0 no effect, 100 complete control
[20] = 125 g ai/ha, 0 to 100 scale (0 no effect, 100 complete control)
[21] = 31 g ai/ha, 0 to 100 scale (0 no effect, 100 complete control)
[22] = 125 g ai/ha, 0 to 100 scale, 0 is no effect, 100 is complete control, approximately 10 days

| SMILES | Plant response rating, Barnyardgrass [1, 19] | Plant response rating, Barnyardgrass [1, 20] | Plant response rating, Ryegrass, Italian [2, 19] | Plant response rating, Ryegrass, Italian [2, 20] | Plant response rating, Ragweed [3, 19] | Plant response rating, Ragweed [3, 20] | Plant response rating, Foxtail, Giant [4, 19] | Plant response rating, Foxtail, Giant [4, 20] | Plant response rating, Kochia (kochia (Kochia scoparia) [5]; [19]) | Plant response rating, Kochia (kochia (Kochia scoparia) [5]; [20]) | Plant response rating, Pigweed [6, 19] | Plant response rating, Pigweed [6, 20] | Plant response rating, Sedge, Umbrella [7] | Plant response rating, Barnyardgrass [8] | Plant response rating, Rice (rice (Oryza sativa)) | Plant response rating, Ducksalad [9] | Blackgrass plant response rating [10, 21] | Blackgrass plant response rating [10, 22] | Barnyardgrass plant response rating ([11]; 31 g ai/ha) | Barnyardgrass plant response rating ([11]; 125 g ai/ha) | other results |
| --- | --- | --- | --- | --- | --- | --- | --- | --- | --- | --- | --- | --- | --- | --- | --- | --- | --- | --- | --- | --- | --- |
| N#Cc1cccc(Oc2ncc(Cl)cn2)c1COCC(F)(F)C(F)(F)F [Compound 132] | 30 | 100 | 0 | 30 | 0 | 0 | 40 | 100 | 10 | 60 | 70 | 100 | 80 | 45 | 45 | 90 | 0 | 30 | 30 | 50 | Ryegrass, Italian plant response rating [12, 21]: 0; Ryegrass, Italian plant response rating [12, 22]: 0; Ragweed plant response rating [13, 21]: 0; Ragweed plant response rating [13, 22]: 0; Wheat plant response rating [14, 21]: 0; Wheat plant response rating [14, 22]: 20; Galium plant response rating [15, 21]: 20; Galium plant response rating [15, 22]: 60; Foxtail, Giant plant response rating [16, 21]: 30; Foxtail, Giant plant response rating [16, 22]: 50; Corn plant response rating (corn (Zea mays); [21]): 20; Corn plant response rating (corn (Zea mays); [22]): 30; Kochia plant response rating (kochia (Kochia scoparia) [17]; [21]): 40; Kochia plant response rating (kochia (Kochia scoparia) [17]; [22]): 70; Pigweed plant response rating [18, 21]: 60; Pigweed plant response rating [18, 22]: 90 |
| N#Cc1cccc(Oc2ncc(Cl)cn2)c1C(=O)CCCC(F)(F)F [Compound 133] | 0 | 30 | 0 | 0 | 0 | 0 | 0 | 90 | 0 | 10 | 70 | 100 | 0 | 0 | 30 | 0 | 0 | 0 | 10 | 30 | Ryegrass, Italian plant response rating [12, 21]: 0; Ryegrass, Italian plant response rating [12, 22]: 0; Ragweed plant response rating [13, 21]: 0; Ragweed plant response rating [13, 22]: 0; Wheat plant response rating [14, 21]: 0; Wheat plant response rating [14, 22]: 0; Galium plant response rating [15, 21]: 30; Galium plant response rating [15, 22]: 50; Foxtail, Giant plant response rating [16, 21]: 10; Foxtail, Giant plant response rating [16, 22]: 30; Corn plant response rating (corn (Zea mays); [21]): 0; Corn plant response rating (corn (Zea mays); [22]): 20; Kochia plant response rating (kochia (Kochia scoparia) [17]; [21]): 0; Kochia plant response rating (kochia (Kochia scoparia) [17]; [22]): 20; Pigweed plant response rating [18, 21]: 30; Pigweed plant response rating [18, 22]: 50 |
| CCc1cccc(Oc2ncc(Cl)cn2)c1CCCCC(F)(F)F [Compound 134] | 0 | 80 | 0 | 20 | 0 | 0 | 10 | 90 | 0 | 10 | 0 | 50 | 95 | 0 | 20 | 95 | 10 | 20 | 0 | 20 | Ryegrass, Italian plant response rating [12, 21]: 0; Ryegrass, Italian plant response rating [12, 22]: 10; Ragweed plant response rating [13, 21]: 0; Ragweed plant response rating [13, 22]: 10; Wheat plant response rating [14, 21]: 0; Wheat plant response rating [14, 22]: 10; Galium plant response rating [15, 21]: 10; Galium plant response rating [15, 22]: 40; Foxtail, Giant plant response rating [16, 21]: 10; Foxtail, Giant plant response rating [16, 22]: 20; Corn plant response rating (corn (Zea mays); [21]): 10; Corn plant response rating (corn (Zea mays); [22]): 10; Kochia plant response rating (kochia (Kochia scoparia) [17]; [21]): 20; Kochia plant response rating (kochia (Kochia scoparia) [17]; [22]): 60; Pigweed plant response rating [18, 21]: 40; Pigweed plant response rating [18, 22]: 80 |
| FC(F)(F)CCCCc1c(Oc2ncc(Cl)cn2)cccc1C1CC1 [Compound 135] | 0 | 40 | 0 | 10 | 0 | 0 | 0 | 50 | 0 | 0 | 0 | 20 | 85 | 0 | 20 | 85 | 0 | 20 | 0 | 10 | Ryegrass, Italian plant response rating [12, 21]: 0; Ryegrass, Italian plant response rating [12, 22]: 10; Ragweed plant response rating [13, 21]: 0; Ragweed plant response rating [13, 22]: 10; Wheat plant response rating [14, 21]: 0; Wheat plant response rating [14, 22]: 0; Galium plant response rating [15, 21]: 50; Galium plant response rating [15, 22]: 80; Foxtail, Giant plant response rating [16, 21]: 10; Foxtail, Giant plant response rating [16, 22]: 20; Corn plant response rating (corn (Zea mays); [21]): 10; Corn plant response rating (corn (Zea mays); [22]): 20; Kochia plant response rating (kochia (Kochia scoparia) [17]; [21]): 10; Kochia plant response rating (kochia (Kochia scoparia) [17]; [22]): 60; Pigweed plant response rating [18, 21]: 40; Pigweed plant response rating [18, 22]: 90 |
